# Values joined by “and” are separate entries in the source; they are usually repeats but may differ in a detail not shown here. Equal values may be shown once. Read-outs that look alike come from different tables or passages of the source.
# Experiments:
# Gdx-pAmi = assay: SSM electrophysiology of Gdx-pAmi proteoliposomes; assay type: biochemical, Aminobacter sp. MET; details: for Transport currents in substrate screen: 2 mM substrate; for Km: pH 7.5, mean ± SEM, read-out: Km determined using SSM electrophysiology
# Protocol: (§1) Gdx-Clo ([Kermani et al., 2018]), Gdx-Eco ([Kermani et al., 2018]), EmrE ([Kermani et al., 2022]), and Gdx-pAmi ([Martinez-Vaz et al., 2022]) construct design and purification have been described previously. […] Proteins were overexpressed in C41(DE3). Expression was induced by the addition of 0.2 mM IPTG for 3 h. Cells were lysed and extracted with 2% n-decyl-β-D-maltoside (DM) for 2 h. After pelleting insoluble cell debris, proteins were purified using cobalt affinity resin. Wash buffer contained 25 mM Tris, pH 8.5, 150 mM NaCl, and 5 mM DM. For Gdx-pAmi, NaCl concentration was increased to 500 mM NaCl. The affinity column was washed with wash buffer, then wash buffer with 10 mM imidazole, prior to elution with wash buffer with 400 mM imidazole. For Gdx-Clo and Gdx-Eco, histidine tags were cleaved with LysC (200 ng/mg of protein; 2 h at room temperature; New England Biolabs), and for all others, histidine tags were cleaved with thrombin (1 U/mg of protein, overnight at room temperature; MilliporeSigma). Proteins were further purified using a gel filtration Superdex200 column (Cytiva) equilibrated with 100 mM NaCl, 10 mM N-2-hydroxyethylpiperazine-N′-2-ethanesulfonic acid (HEPES), pH 7.5, and 5 mM DM. Purified proteins were stored at 4°C for up to 5 days before detergent binding assays. To prepare proteoliposomes for electrophysiology assays, purified protein was mixed with E. coli polar lipid extract (10 mg/ml; Avanti Polar Lipids) solubilized with 35 mM 3-[(3-cholamidopropyl)dimethylammonio]-1-propanesulfonate (CHAPS) at a protein to lipid ratio of 40 μg SMR transporter: mg lipid (1:370 protein:lipid molar ratio) prior to detergent removal by dialysis. For preparations that included Fluc-Bpe, liposomes were reconstituted with a molar ratio of 0.3 Fluc-Bpe:1 SMRGdx: 5920 lipid (1 μg Fluc-Bpe and ∼2.5 μg SMRGdx per mg lipid). For liposome transport assays, proteoliposomes were prepared similarly, except that a 2:1 mixture of 1-palmitoyl, 2-oleoylphosphatidylethanolamine (POPE) and 1-palmitoyl, 2-oleoylphosphatidylglycerol (POPG) (10 mg/ml; Avanti Polar Lipids) was used with 0.2 μg protein/mg lipid. Proteoliposomes were stored at −80°C until use.
# (§2) SSM experiments were performed using SURFE^2R N1 instrument (Nanion Technologies). Sensors were prepared with a 1,2-diphytanoyl-sn-glycero-3-phosphocholine (DPhPC) lipid monolayer according to published protocols ([Bazzone et al., 2017]). Each sensor’s capacitance and conductance were verified before use (<80 nF capacitance, <50 nS conductance) using Nanion software protocols. Proteoliposome stock was diluted 1:25 in assay buffer (100 mM KCl, 100 mM KPO4, pH 7.5) prior to adsorption to the DPhPC monolayer. For substrate screening experiments, reference substrate samples (Gdm^+ for SMRGdx, and TPA^+ for SMRQac) were checked periodically to test for the stability of the sensor; if the current amplitude of the reference compound differed by >10% on one sensor, it indicated the desorption of liposomes, and the sensor was not used for further experiments. For every SSM electrophysiology experiment, we used the same general solution exchange protocol: after 2 s perfusion with a non-activating solution, we perfused substrate-containing buffer for 2 s and then returned to the equilibrium condition with a 4 s perfusion of non-activating buffer. For experiments with the S104C/A70C crosslinked variant, reducing conditions were established by the addition of 2.5 mM tris(2-carboxyethyl)phosphine (TCEP) to the activating and non-activating buffers.
# (§3) We screened a series of metformin metabolites for transport using SSM electrophysiology (Fig. 2, A and B).
# Gdx-pPro = Gdx-pPro (Citrobacter freundii, UniProt O69279); details: for Transport currents in substrate screen: 2 mM substrate
# Gdx-Clo [1] = biological target: T1, Gdx-Clo (Clostridiales bacterium oral taxon 876, UniProt U2EQ00); assay: Tryptophan fluorescence substrate binding; design: species or system Clostridales oral taxon 876
# T1 sequence (U2EQ00 1-105): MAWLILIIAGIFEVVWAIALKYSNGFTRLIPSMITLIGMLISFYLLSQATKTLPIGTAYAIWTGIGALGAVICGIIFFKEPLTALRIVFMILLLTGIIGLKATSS
# Protocol: Fluorescence emission spectra (λex = 280 nm, […]) were collected for 1 µM purified protein in assay buffer containing 200 mM NaCl, 10 mM HEPES, 10 mM bicine, 10 mM NaPO4, and 5 mM DM, with pH adjusted from 6.5 to 9.0. Substrate was added from a stock solution prepared in assay buffer. For Gdm^+ titrations, the change in fluorescence, F, as a function of substrate fit to a single site binding isotherm, ∆F=(Fmax[S]/Kd+[S]). (3)
# To derive the Ka values and Kd values from the apparent Kd measured as a function of pH, we used the following equation, which uses the approximation that the protonatable E13 sidechains have equal Ka values: Kd,app=(Kd)*(1+([H^+]/Ka))*(1+([H^+]/Ka)). (5)
# Gdx-Clo [2] = biological target: T1, Gdx-Clo; assay: SSM electrophysiology of Gdx-Clo proteoliposomes; assay type: biochemical, Clostridales oral taxon 876; details: for Transport currents in substrate screen: 2 mM substrate
# Protocol: as §1, §2, §3
# [3] = substrate at fivefold Km, normalized to Fluc-Bpe fluoride current
# [4] = pH 6.5, tryptophan fluorescence, mean ± SEM, read-out: Kd (apparent) for substrate binding to Gdx-Clo
# [5] = pH 7.0, tryptophan fluorescence, mean ± SEM, read-out: Kd (apparent) for substrate binding to Gdx-Clo
# [6] = pH 7.5, tryptophan fluorescence, mean ± SEM, read-out: Kd (apparent) for substrate binding to Gdx-Clo
# [7] = pH 8.0, tryptophan fluorescence, mean ± SEM, read-out: Kd (apparent) for substrate binding to Gdx-Clo
# [8] = pH 8.5, tryptophan fluorescence, mean ± SEM, read-out: Kd (apparent) for substrate binding to Gdx-Clo
# [9] = pH-independent Kd, glutamates assumed to have equal Ka, read-out: Kd from fit of apparent Kd versus pH to Eq. 5
# [10] = pH 7.5, mean ± SEM, read-out: Km determined using SSM electrophysiology
# Gdx-pPro, sequence (O69279 2-105): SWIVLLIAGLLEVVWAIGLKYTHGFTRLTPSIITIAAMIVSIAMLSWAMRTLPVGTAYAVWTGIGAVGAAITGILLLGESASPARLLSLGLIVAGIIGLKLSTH
SMILES,Transport currents in substrate screen (Gdx-pAmi),Km (Gdx-pAmi),"Turnover rate of Gdm+ relative to guanylurea (Gdx-pAmi; substrate at fivefold Km, normalized to Fluc-Bpe fluoride current and reconstitution efficiency)",Transport currents in substrate screen (Gdx-pPro),Maximal velocity for Gdm+ relative to guanylurea (Gdx-pPro; [3]),Kd (Gdx-Clo [1]; [4]) [µM],Kd (Gdx-Clo [1]; [5]) [µM],Kd (Gdx-Clo [1]; [6]) [µM],Kd (Gdx-Clo [1]; [7]) [µM],Kd (Gdx-Clo [1]; [8]) [µM],Kd (Gdx-Clo [1]; [9]) [µM],Transport currents in substrate screen (Gdx-Clo [2]),Km (Gdx-Clo [2]; [10]) [µM],Km (Gdx-Clo [2]; read-out: Km value) [µM],Maximal velocity for Gdm+ relative to guanylurea (Gdx-Clo [2]; [3]),Km (Gdx-pAmi; listed as guanylurea) [µM],"Kd (Gdx-Clo [1]; pH 9.0, tryptophan fluorescence, mean ± SEM, read-out: Kd (apparent) for substrate binding to Gdx-Clo) [µM]"
"N=C(N)N [Gdm^+, guanidinium]",negative capacitive currents,16000 µM and 15700 µM,comparable,negative capacitive currents,approximately twofold higher,4300 ± 1000,1500 ± 300,960 ± 120,660 ± 80,480 ± 100,600,transported,500 ± 100,500,approximately twofold higher,–,–
"N=C(N)NC(N)=O [Guanylurea, guanylurea]",negative capacitive currents,5200 ± 2000 µM,–,negative capacitive currents,–,860 ± 220,190 ± 20,120 ± 20,59 ± 1,91 ± 16,70,transported,220 ± 60,220,–,5000,63 ± 5

# Source: paper PMC10829512, “Transport of metformin metabolites by guanidinium exporters of the small multidrug resistance family” (The Journal of General Physiology, 2024)
